Laboratory results from PubChem BioAssay AID1259408 (Genetic Toxicology Data Bank (GENE-TOX), 2018).
Active and inactive are the calls of the source. No rule for the calls is given here.

Tested on: GENE-TOX genotoxicity assays, various organisms and cells
Assay: GENE-TOX mutagenicity studies
Details: for call: Assay Type: In vivo carcinogenicity studies
[1] = Species/Cell Type: Saccharomyces cerevisiae, Assay Type: Mitotic recombination or gene conversion, Assay Code: YEH-, Evaluation Type: Evaluation A (Pre-1980)
[2] = Species/Cell Type: Salmonella typhimurium (one or more of the five standard strains: TA98, TA100, TA1535, TA1537, and TA1538), Assay Type: Histidine reverse gene mutation, Ames assay, Assay Code: SAL+, Evaluation Type: Evaluation A (Pre-1980)
[3] = Species/Cell Type: Mammalian polychromatic erythrocytes, Assay Type: Micronucleus test, chromosome aberrations, Assay Code: MNT+, Evaluation Type: Evaluation B (Post-1980)
[4] = Species/Cell Type: Salmonella typhimurium (one or more of the five standard strains: TA98, TA100, TA1535, TA1537, and TA1538), Assay Type: Histidine reverse gene mutation, Ames assay, Assay Code: SALT, Evaluation Type: Evaluation A (Pre-1980)
[5] = Species/Cell Type: Escherichia coli polA (W3119 vs P3478), Assay Type: Rec-assay, DNA effects (bacterial DNA repair), Assay Code: RE1T, Evaluation Type: Evaluation A (Pre-1980)
[6] = Species/Cell Type: Nonhuman, Assay Type: Sister-chromatid exchange (SCE) in vivo, Assay Code: SC3+, Evaluation Type: Evaluation B (Post-1980)
[7] = Species/Cell Type: Chinese hamster ovary (CHO) cells, Assay Type: Forward gene mutation at the HPRT locus, Assay Code: CHOT, Evaluation Type: Evaluation B (Post-1980)
[8] = Species/Cell Type: Nonhuman, Assay Type: Sister-chromatid exchange (SCE) in vitro, Assay Code: SC2-, Evaluation Type: Evaluation B (Post-1980)
[9] = Species/Cell Type: Salmonella typhimurium (one or more of the five standard strains: TA98, TA100, TA1535, TA1537, and TA1538), Assay Type: Histidine reverse gene mutation, Ames assay, Assay Code: SAL+*, Activation: With metabolic activation, Evaluation Type: Evaluation A (Pre-1980)
[10] = Species/Cell Type: Escherichia coli WP2, Assay Type: Tryptophan reverse gene mutation, Assay Code: WP2+, Evaluation Type: Evaluation A (Pre-1980)
[11] = Species/Cell Type: Allium cepa, Assay Type: Chromosome aberrations, Assay Code: ALC+D, Dose Response: With dose response, Evaluation Type: Evaluation A (Pre-1980)
[12] = Species/Cell Type: Bacillus subtilis (H17 vs M45), Assay Type: Rec-assay, spot test, DNA effects (bacterial DNA repair), Assay Code: REWT, Evaluation Type: Evaluation A (Pre-1980)
[13] = Species/Cell Type: Nonhuman, Assay Type: Sister-chromatid exchange (SCE) in vitro, Assay Code: SC2+D*, Activation: With metabolic activation, Dose Response: With dose response, Evaluation Type: Evaluation B (Post-1980)

CC[n+]1c(-c2ccccc2)c2cc(N)ccc2c2ccc(N)cc21
mutagenic call (Species/Cell Type: Chinese hamster ovary (CHO) cells, Assay Type: Forward gene mutation at the HPRT locus, Assay Code: CHO+, Evaluation Type: Evaluation B (Post-1980)): active; positive | mutagenic call (Species/Cell Type: Escherichia coli polA (W3119 vs P3478), Assay Type: Rec-assay, DNA effects (bacterial DNA repair), Assay Code: RE1+, Evaluation Type: Evaluation A (Pre-1980)): active; positive | mutagenic call (Species/Cell Type: Mammalian cell culture, nonhuman, Assay Type: Micronucleus test in vitro, chromosome aberrations, Assay Code: MN&+, Evaluation Type: Evaluation A (Pre-1980)): active; positive | mutagenic call (Species/Cell Type: Mammalian germ cells, Sex: Male, Assay Type: Chromosome aberrations in vivo, Assay Code: CY9T, Evaluation Type: Evaluation A (Pre-1980)): no conclusion | mutagenic call (Species/Cell Type: Mouse, Sex: Male, Assay Type: Sperm morphology, Assay Code: SPI-, Evaluation Type: Evaluation A (Pre-1980)): inactive; negative | mutagenic call (Species/Cell Type: Saccharomyces cerevisiae, Assay Type: Mitotic recombination or gene conversion, Assay Code: YEC-, Evaluation Type: Evaluation A (Pre-1980)): inactive; negative | mutagenic call [1]: inactive; negative | mutagenic call (Species/Cell Type: Saccharomyces cerevisiae, Assay Type: Reverse gene mutation, Assay Code: YER-, Evaluation Type: Evaluation A (Pre-1980)): inactive; negative | mutagenic call [2]: active; positive | mutagenic call (Species/Cell Type: Syrian hamster embryo (SA7/SHE) cells, Assay Type: Cell transformation, viral enhanced, Assay Code: CT7-, Evaluation Type: Evaluation A (Pre-1980)): inactive; negative

Nc1ccc(-c2ccc(-c3ccc(N)cc3)cc2)cc1
mutagenic call [3]: active; positive

O=C(O)c1ccccc1N=Nc1c(O)c(S(=O)(=O)O)cc2cc(S(=O)(=O)O)ccc12
mutagenic call [4]: no conclusion

C[n+]1c2ccccc2cc2ccccc21
mutagenic call (Species/Cell Type: Saccharomyces cerevisiae, Assay Type: Forward gene mutation, Assay Code: YEFT, Evaluation Type: Evaluation A (Pre-1980)): no conclusion

Nc1nc2nc[nH]c2c(=O)[nH]1
mutagenic call (Species/Cell Type: Drosophila melanogaster, Assay Type: Sex-linked recessive lethal gene mutation, Assay Code: SRLT, Evaluation Type: Evaluation A (Pre-1980)): no conclusion | mutagenic call [5]: no conclusion

Nc1ccc(Cc2ccc(N)cc2)cc1
call (Species/Cell Type: Nonhuman, Assay Code: CCG+, Evaluation Type: Evaluation A (Pre-1980)): active; positive | mutagenic call [6]: active; positive

CN(C)CCN(Cc1cccs1)c1ccccn1
mutagenic call [7]: no conclusion | mutagenic call [8]: inactive; negative | mutagenic call (Species/Cell Type: Nonhuman, Assay Type: Sister-chromatid exchange (SCE) in vivo, Assay Code: SC3-, Evaluation Type: Evaluation B (Post-1980)): inactive; negative

Cc1c2c(c(C)c3ccccc13)[C@H]1O[C@H]1c1ccccc1-2
mutagenic call (Species/Cell Type: Drosophila melanogaster, Assay Type: Sex-linked recessive lethal gene mutation, Assay Code: SRL+, Evaluation Type: Evaluation A (Pre-1980)): active; positive | mutagenic call (Species/Cell Type: Mouse prostate cells, Assay Type: Cell transformation, Assay Code: CTM+D, Dose Response: With dose response, Evaluation Type: Evaluation A (Pre-1980)): active; positive | mutagenic call [2]: active; positive

CC1CS(=O)(=O)CCN1/N=C/c1ccc([N+](=O)[O-])o1 (configuration not stated)
mutagenic call [3]: active; positive

O=[N+]([O-])c1ccc(-c2nc(N(CCO)CCO)c3ccccc3n2)s1
mutagenic call [4]: no conclusion

CC(CO)OS(C)(=O)=O (configuration not stated)
mutagenic call (Species/Cell Type: Hordeum vulgare (barley), Assay Type: Chromosome aberrations, Assay Code: HOC+D, Dose Response: With dose response, Evaluation Type: Evaluation A (Pre-1980)): active; positive

CC(CN(C)C)CN1c2ccccc2CCc2ccccc21 (configuration not stated)
mutagenic call (Species/Cell Type: Human, Sex: Male, Assay Type: Sperm morphology, Assay Code: SPHT, Evaluation Type: Evaluation A (Pre-1980)): no conclusion

C=CCN(CC=C)N=O
mutagenic call [9]: active; positive

NNC(=O)NC(=O)NN
mutagenic call [10]: active; positive

CC1=NN(c2ccccc2)C(=O)C1
call (Species/Cell Type: Nonhuman, Assay Code: CCG-L, Evaluation Type: Evaluation A (Pre-1980)): inactive; negative

S=C(S)NCCNC(=S)S
mutagenic call [11]: active; positive

Nc1nc(-c2cc([N+](=O)[O-])cs2)cs1
mutagenic call [2]: active; positive

Cc1ccc(OC(=O)N(C)N=O)cc1C
mutagenic call (Species/Cell Type: Bacillus subtilis (H17 vs M45T), Assay Type: Rec-assay, spot test, DNA effects (bacterial DNA repair), Assay Code: REX+, Evaluation Type: Evaluation A (Pre-1980)): active; positive | mutagenic call [10]: active; positive

O=C1c2ccccc2C(=O)c2c1ccc(O)c2O
mutagenic call (Species/Cell Type: Allium cepa, Assay Type: Chromosome aberrations, Assay Code: ALC+, Evaluation Type: Evaluation A (Pre-1980)): active; positive | mutagenic call [12]: no conclusion

CCCCSP(=O)(SCCCC)SCCCC
mutagenic call [8]: inactive; negative

CC(=O)OCCN(CCOC(C)=O)N=O
mutagenic call (Species/Cell Type: Mammalian polychromatic erythrocytes, Assay Type: Micronucleus test, chromosome aberrations, Assay Code: MNTT, Evaluation Type: Evaluation B (Post-1980)): no conclusion

COP(=O)(OC)C(O)C(Cl)(Cl)Cl (configuration not stated)
mutagenic call [12]: no conclusion | mutagenic call (Species/Cell Type: Drosophila melanogaster, Assay Type: Sex-linked recessive lethal gene mutation, Assay Code: SRL-, Evaluation Type: Evaluation A (Pre-1980)): inactive; negative | mutagenic call (Species/Cell Type: Escherichia coli WP2 UVRA, Assay Type: Tryptophan reverse gene mutation, Assay Code: WPU+D, Dose Response: With dose response, Evaluation Type: Evaluation A (Pre-1980)): active; positive | mutagenic call [5]: no conclusion | mutagenic call (Species/Cell Type: Human diploid fibroblasts, Assay Type: Unscheduled DNA synthesis (UDS) in vitro, DNA effects, Assay Code: UDH+/-*, Activation: With metabolic activation, Evaluation Type: Evaluation A (Pre-1980)): inactive; positive without activation, negative with activation | mutagenic call (Species/Cell Type: Mammalian polychromatic erythrocytes, Assay Type: Micronucleus test, chromosome aberrations, Assay Code: MNTT, Evaluation Type: Evaluation A (Pre-1980)): no conclusion | mutagenic call [13]: active; positive | mutagenic call (Species/Cell Type: Saccharomyces cerevisiae, Assay Type: Mitotic recombination or gene conversion, Assay Code: YEH+, Evaluation Type: Evaluation A (Pre-1980)): active; positive | mutagenic call [2]: active; positive | mutagenic call (Species/Cell Type: Salmonella typhimurium, Assay Type: Forward and reverse gene mutation, body fluid assay, Assay Code: BFU+, Evaluation Type: Evaluation A (Pre-1980)): active; positive

Cc1cc2ccccc2oc1=O
mutagenic call [11]: active; positive

O=C(O)[C@@H]1CCCN1
mutagenic call (Species/Cell Type: Salmonella typhimurium, Assay Type: Forward and reverse gene mutation, host-mediated assay, Assay Code: HMA-, Evaluation Type: Evaluation A (Pre-1980)): inactive; negative

COC1=C2C[C@@H](C)C[C@H](OC)[C@H](O)[C@@H](C)/C=C(\C)[C@H](OC(N)=O)[C@@H](OC)/C=C\C=C(/C)C(=O)NC(=CC1=O)C2=O
mutagenic call (Species/Cell Type: Fischer rat embryo (RLV/1706) cells, Assay Type: Cell transformation, viral enhanced, Assay Code: CTR-, Evaluation Type: Evaluation A (Pre-1980)): inactive; negative

CC(C)=CC1C(C(=O)OCc2coc(Cc3ccccc3)c2)C1(C)C (configuration not stated)
mutagenic call (Species/Cell Type: Human diploid fibroblasts, Assay Type: Unscheduled DNA synthesis (UDS) in vitro, DNA effects, Assay Code: UDH-, Evaluation Type: Evaluation A (Pre-1980)): inactive; negative | mutagenic call [1]: inactive; negative

C/C=C\C(=O)O[C@@H]1C[C@H]2O[C@@H]3C=C(C)[C@@H]4O[C@@H]4[C@]3(C)C1(C)[C@]21CO1
mutagenic call [4]: no conclusion

CN(N=O)C(=O)NC1O[C@H](CO)[C@@H](O)[C@H](O)[C@H]1O (some centres not stated)
mutagenic call (Species/Cell Type: Chinese hamster lung (V79) cells, Assay Type: Forward gene mutation at the HPRT or ouabain locus, Assay Code: V79+, Evaluation Type: Evaluation A (Pre-1980)): active; positive

Cn1c(N)nc2c3cccnc3ccc21
mutagenic call [7]: no conclusion | mutagenic call (Species/Cell Type: Mammalian polychromatic erythrocytes, Assay Type: Micronucleus test, chromosome aberrations, Assay Code: MNT-, Evaluation Type: Evaluation B (Post-1980)): inactive; negative | mutagenic call [13]: active; positive | mutagenic call [6]: active; positive

C=COCC(F)(F)F
mutagenic call (Species/Cell Type: Nonhuman, Assay Type: Sister-chromatid exchange (SCE) in vitro, Assay Code: SC2+, Evaluation Type: Evaluation B (Post-1980)): active; positive | mutagenic call [9]: active; positive | mutagenic call (Species/Cell Type: Salmonella typhimurium and Escherichia coli, Assay Type: Forward and reverse gene mutation, body fluid assay, Assay Code: BFB-, Evaluation Type: Evaluation A (Pre-1980)): inactive; negative
